From publication PMC10364322, “Evaluation of chronic drug-induced electrophysiological and cytotoxic effects using human-induced pluripotent stem cell-derived cardiomyocytes (hiPSC-CMs)” (Frontiers in Pharmacology, 2023)
Like-named read-outs stand apart in the source and are kept apart here.

Legend:
[1] = system: hiPSC-CMs (iCell-Cardiomyocytes^2); assay: MEA impedance (cytotoxicity readout) in hiPSC-CMs
Method: (§1) Cells were seeded according to the instructions of the cell provider, in fibronectin-coated 48-well MEA plates (Axion Cytoview Plates, M768-tMEA-48B) at a density suited to form a monolayer (i.e., 50 K/well) and maintained in culture in a stage incubator (37°C, 5% CO2).
(§2) At least 4 h before the beginning of the baseline measurements, a full medium exchange was performed (to a final volume of 400 µL per well). Neat compounds were dissolved in 100% DMSO at a stock concentration 1000-fold the highest target concentration. […] Afterwards, these stock solutions were diluted with Maintenance medium (CDi), to 10-fold the intended concentration. The final DMSO concentration in test solutions and vehicle control was 0.1%.
(§3) Spontaneous electrical activity was recorded in hiPSC-CMs monolayers as field potentials using the Maestro Pro MEA instrument (Axion Biosystems, Atlanta, GA, United States), which allows the maintenance of accurate temperature and CO2 levels (37°C, 5% CO2). After the plate was placed in the Maestro Pro and allowed to equilibrate for about 10 min, baseline acquisition of field potential and impedance signals was initiated and lasted for 5 min each. […] As impedance measures resistance of an applied alternating current through the hiPSC-CMs monolayer, a reduction in the attachment of hiPSC-CMs to the bottom of the well due to cell death or changes in the monolayer morphology, causes a drop in the impedance signal.
(§4) After the acquisition of all timepoint measurements, raw data were loaded into the data analysis software Axion Cardiac Analysis Tool (V.3.2.3). […] A.csv file containing information on the FP parameters per well, per time point, was then generated and used as input to the in-house data management system (SPEcII v.3.4, Unlimit-IT, Geel, Belgium), where descriptive statistics were calculated. Summary values at different time points after compound addition are expressed as percent change from baseline and shown as mean ± standard deviation (SD).
(§5) The nonparametric Wilcoxon-Mann Whitney Test was used to compare the percent change from the baseline (Δ%) value between the group treated with the compound at a given concentration and the group treated with the DMSO at each matching time points. A two-sided test at 5% significance level was considered. […] To assess the physiological relevance of changes, a tolerance interval of DMSO experiments was calculated at each time point, for each parameter. […] TIs indicate an interval where, with a certain confidence level (1- α = 0.95), a specified proportion (p = 0.80) of percent change for DMSO data falls. The lower and upper limits based on the TI values were used as cut-offs for the interpretation of the changes. For the cytotoxicity assays, measurements of fluorescence (after background fluorescence subtraction) from wells treated with the compounds were normalized by the average value of vehicle experiments (DMSO 0.1%) to obtain a DMSO-corrected, delta/delta percent change. Experiments from each condition, as delta/delta percent, were averaged and expressed as mean ± SD. Statistical analysis was performed using a non-parametric test (Kruskal-Wallis) and each treatment condition was compared to the relative DMSO 0.1%. Differences were considered statistically significant when the p-value was smaller than 0.05.

[2] = system: hiPSC-CMs (iCell-Cardiomyocytes^2)
Method: as §1, §2, §3
The potential presence of various arrhythmic events was evaluated and noted during the data analysis.
as §4, §5

SMILES: O=C(O)COCCN1CCN(C(c2ccccc2)c2ccc(Cl)cc2)CC1 (centres unmarked) [Cetirizine]
- Imp (impedance), % change from baseline ([1]; 0.1 µM, 2h): -4±4%
- Imp (impedance), % change from baseline ([1]; 0.1 µM, 24h): -8±1%
- Imp (impedance), % change from baseline ([1]; 0.1 µM, 48h): -7±2%
- Imp (impedance), % change from baseline ([1]; 0.1 µM, 72h): -7±3%
- Imp (impedance), % change from baseline ([1]; 0.1 µM, 96h): -7±4%
- Imp (impedance), % change from baseline ([1]; 0.3 µM, 2h): -3±3%
- Imp (impedance), % change from baseline ([1]; 0.3 µM, 24h): -8±2%
- Imp (impedance), % change from baseline ([1]; 0.3 µM, 48h): -5±4%
- Imp (impedance), % change from baseline ([1]; 0.3 µM, 72h): -5±6%
- Imp (impedance), % change from baseline ([1]; 0.3 µM, 96h): -5±6%
- Imp (impedance), % change from baseline ([1]; 1 µM, 2h): -4±2%
- Imp (impedance), % change from baseline ([1]; 1 µM, 24h): -7±5%
- Imp (impedance), % change from baseline ([1]; 1 µM, 48h): -4±7%
- Imp (impedance), % change from baseline ([1]; 1 µM, 72h): -5±6%
- Imp (impedance), % change from baseline ([1]; 1 µM, 96h): -4±9%
- Imp (impedance), % change from baseline ([1]; 3 µM, 72h): -8±7%
- Imp (impedance), % change from baseline ([1]; 3 µM, 96h): -6±7%
- Imp (impedance), % change from baseline ([1]; 3 µM, 2h): -3±2%
- Imp (impedance), % change from baseline ([1]; 3 µM, 24h): -7±4%
- Imp (impedance), % change from baseline ([1]; 3 µM, 48h): -3±6%
- BR (beating rate), % change from baseline ([2]; 0.1 µM, 2h): 2±1%
- FPD (field-potential duration), % change from baseline ([2]; 0.1 µM, 2h): 3.2±0.7%
- FPDc (field-potential duration corrected by beat-rate), % change from baseline ([2]; 0.1 µM, 2h): 4.1±0.9%
- BR (beating rate), % change from baseline ([2]; 0.1 µM, 24h): 2±2%
- FPD (field-potential duration), % change from baseline ([2]; 0.1 µM, 24h): 8.9±2.4%
- FPDc (field-potential duration corrected by beat-rate), % change from baseline ([2]; 0.1 µM, 24h): 9.7±1.6%
- BR (beating rate), % change from baseline ([2]; 0.1 µM, 48h): -1±3%
- FPD (field-potential duration), % change from baseline ([2]; 0.1 µM, 48h): 8.3±2.5%
- FPDc (field-potential duration corrected by beat-rate), % change from baseline ([2]; 0.1 µM, 48h): 8±2.9%
- BR (beating rate), % change from baseline ([2]; 0.1 µM, 72h): 0±2%
- FPD (field-potential duration), % change from baseline ([2]; 0.1 µM, 72h): 7.8±1.4%
- FPDc (field-potential duration corrected by beat-rate), % change from baseline ([2]; 0.1 µM, 72h): 7.6±1.5%
- BR (beating rate), % change from baseline ([2]; 0.1 µM, 96h): -5±2%
- FPD (field-potential duration), % change from baseline ([2]; 0.1 µM, 96h): 8.9±2.9%
- FPDc (field-potential duration corrected by beat-rate), % change from baseline ([2]; 0.1 µM, 96h): 7.1±3.5%
- BR (beating rate), % change from baseline ([2]; 0.3 µM, 2h): 2±3%
- FPD (field-potential duration), % change from baseline ([2]; 0.3 µM, 2h): 2.9±2.5%
- FPDc (field-potential duration corrected by beat-rate), % change from baseline ([2]; 0.3 µM, 2h): 3.8±2.3%
- BR (beating rate), % change from baseline ([2]; 0.3 µM, 24h): 2±2%
- FPD (field-potential duration), % change from baseline ([2]; 0.3 µM, 24h): 12.5±1.8%
- FPDc (field-potential duration corrected by beat-rate), % change from baseline ([2]; 0.3 µM, 24h): 13±1.9%
- BR (beating rate), % change from baseline ([2]; 0.3 µM, 48h): -4±3%
- FPD (field-potential duration), % change from baseline ([2]; 0.3 µM, 48h): 12.1±2.3%
- FPDc (field-potential duration corrected by beat-rate), % change from baseline ([2]; 0.3 µM, 48h): 10.4±2.2%
- BR (beating rate), % change from baseline ([2]; 0.3 µM, 72h): -4±1%
- FPD (field-potential duration), % change from baseline ([2]; 0.3 µM, 72h): 9.2±4.1%
- FPDc (field-potential duration corrected by beat-rate), % change from baseline ([2]; 0.3 µM, 72h): 7.7±3.7%
- BR (beating rate), % change from baseline ([2]; 0.3 µM, 96h): -6±2%
- FPD (field-potential duration), % change from baseline ([2]; 0.3 µM, 96h): 10.3±1.1%
- FPDc (field-potential duration corrected by beat-rate), % change from baseline ([2]; 0.3 µM, 96h): 8.2±1.1%
- BR (beating rate), % change from baseline ([2]; 1 µM, 2h): 3±2%
- FPD (field-potential duration), % change from baseline ([2]; 1 µM, 2h): 3.3±5.6%
- FPDc (field-potential duration corrected by beat-rate), % change from baseline ([2]; 1 µM, 2h): 4.5±5%
- BR (beating rate), % change from baseline ([2]; 1 µM, 24h): 1±4%
- FPD (field-potential duration), % change from baseline ([2]; 1 µM, 24h): 19.3±18.2%
- FPDc (field-potential duration corrected by beat-rate), % change from baseline ([2]; 1 µM, 24h): 19.6±16.4%
- BR (beating rate), % change from baseline ([2]; 1 µM, 48h): -4±4%
- FPD (field-potential duration), % change from baseline ([2]; 1 µM, 48h): 20.8±13.7%
- FPDc (field-potential duration corrected by beat-rate), % change from baseline ([2]; 1 µM, 48h): 19±15%
- BR (beating rate), % change from baseline ([2]; 1 µM, 72h): -6±2%
- FPD (field-potential duration), % change from baseline ([2]; 1 µM, 72h): 17.3±16.7%
- FPDc (field-potential duration corrected by beat-rate), % change from baseline ([2]; 1 µM, 72h): 15.4±17.1%
- BR (beating rate), % change from baseline ([2]; 1 µM, 96h): -6±5%
- FPD (field-potential duration), % change from baseline ([2]; 1 µM, 96h): 19±15.6%
- FPDc (field-potential duration corrected by beat-rate), % change from baseline ([2]; 1 µM, 96h): 16.5±16.6%
- BR (beating rate), % change from baseline ([2]; 3 µM, 72h): -5±2%
- FPD (field-potential duration), % change from baseline ([2]; 3 µM, 72h): 12.9±3.8%
- FPDc (field-potential duration corrected by beat-rate), % change from baseline ([2]; 3 µM, 72h): 11.2±3%
- BR (beating rate), % change from baseline ([2]; 3 µM, 96h): -5±5%
- FPD (field-potential duration), % change from baseline ([2]; 3 µM, 96h): 14.4±6.3%
- FPDc (field-potential duration corrected by beat-rate), % change from baseline ([2]; 3 µM, 96h): 12.1±5%
- BR (beating rate), % change from baseline ([2]; 3 µM, 2h): 3±2%
- FPD (field-potential duration), % change from baseline ([2]; 3 µM, 2h): 4.9±3.1%
- FPDc (field-potential duration corrected by beat-rate), % change from baseline ([2]; 3 µM, 2h): 6.1±3.3%
- BR (beating rate), % change from baseline ([2]; 3 µM, 24h): 1±4%
- FPD (field-potential duration), % change from baseline ([2]; 3 µM, 24h): 14.6±2.3%
- FPDc (field-potential duration corrected by beat-rate), % change from baseline ([2]; 3 µM, 24h): 15.2±2.8 %
- BR (beating rate), % change from baseline ([2]; 3 µM, 48h): -5±2%
- FPD (field-potential duration), % change from baseline ([2]; 3 µM, 48h): 14.5±3.8%
- FPDc (field-potential duration corrected by beat-rate), % change from baseline ([2]; 3 µM, 48h): 12.5±3%
